According to patent US20250312416A1, “METHOD AND PHARMACEUTICAL COMPOSITION FOR CARTILAGE REGENERATION” (FAR EASTERN MEMORIAL HOSPITAL, priority 2024, published 2025):
Entries after “also recorded” stand apart in the source; their conditions may differ.

Legend:
clinical-grade ADSCs = assay: Alcian blue staining of chondrogenic pellets (GAG), ADSCs; format: cell-based, human
Procedure: The chondrogenic differentiation of pellets containing clinical-grade ADSCs was assessed through Alcian blue staining.
The chondrogenic differentiation of pellets containing clinical-grade ADSCs was evaluated using Alcian blue staining.
Alcian blue staining was used to assess the chondrogenic differentiation of ADSC pellets. […] Treatment with CXCL14-PM1, CXCL14-PM2, CXCL14-PM3, and CXCR4-PM1 was sufficient to enhance the expression of chondrogenic genes in ADSCs. On day 7, real-time PCR was performed to analyze the expression of key chondrogenic markers, including SOX9, COL2A1, COMP, ACAN, ITGB1, CXCL14, and CXCR4, in ADSCs treated with these modified peptides. ADSCs were exposed to distinct peptide modifications derived from CXCL12, CXCL14, and CXCR4 at a concentration of 10 ng for a one-day treatment, after which the medium was replaced with fresh peptide-free medium. At the end of the treatment period, RNA was extracted to evaluate the expression levels of chondrogenesis-related cytokine genes. Gene expression quantification was performed using a LightCycler system (Roche Applied Science), and fold changes were calculated relative to untreated control ADSCs. […] FIG. 16(D) provides a summary of the results for alanine substitution with positively or negatively charged amino acids in CXCL12, CXCL14, and CXCR4 peptides.
To assess differentiation capacity, single-cell suspensions from cultured IPFP-MSCs and ADSCs were cultivated in chondrogenic medium. Alcian Blue staining was performed on day 7 to evaluate chondrogenic differentiation. The chondrogenic differentiation test was measured gene expressions of ACAN, COL2A1, SOX9, COMP, ITGB1, CXCL14 and SOSTDC1.

UC-MSCs = assay: Real-time PCR of chondrogenic genes in UC-MSCs; format: cell-based; settings: day 7 of peptide treatment
Description: FIG. 13A provides flowchart illustrating the protocol for peptide treatment and sample collection. […] TGF-beta influenced the expression of chondrogenic genes, including ITGB1 and COMP. […] Treatment with CXCL14/CXCL12 peptides increased GAG content during chondrogenesis in the presence of TGF-beta.
To further validate the role of CXCL14-P and CXCL12-P in regulating chondrogenesis, we compared their effects on another MSC source, umbilical cord-derived mesenchymal stem cells (UC-MSCs). It is important to note that the chondrogenic induction medium contained TGF-β. During chondrogenesis, we observed that the chondrogenic patterns in UC-MSCs were lower than those in ADSCs (FIG. 12). Subsequently, we assessed the chondrogenic potential of UC-MSCs following stimulation with CXCL14-P and CXCL12-P (FIG. 13A). […] Although the expression of chondrogenic genes (FIG. 13B) and GAG content (FIG. 13C) in UC-MSCs was not as pronounced as in ADSCs, the findings confirm that CXCL14-P and CXCL12-P can robustly stimulate chondrogenesis across different MSC sources.

ADSCs = assay: Cellular uptake of fluorescently labeled peptides by fluorescence microscopy; format: cell-based, human
Procedure: Cell-penetrating properties of CXCL14-P and CXCL12-P peptides in ADSCs were analyzed. ADSCs were incubated with 10 ng of FITC-conjugated peptides at 37° C. for one day, followed by refreshing the chondrogenic medium. Peptide internalization was evaluated through fluorescence microscopy on days 1, 3, and 7.
We further explored whether peptides derived from CXCL14 and CXCL12 have the capacity to induce chondrogenesis in MSCs from different sources. To assess their potential, ADSCs were utilized in the study to evaluate the chondrogenic capacity of CXCL14-P and CXCL12-P on day 7 (FIG. 10A). […] FIG. 11 illustrates the cell-penetrating properties of CXCL14-P and CXCL12-P peptides in ADSCs, analyzed at different time points. ADSCs were incubated with FITC-conjugated peptides for one day, after which the chondrogenic medium was refreshed. […] Collectively, these observations indicate that CXCL14-P and CXCL12-P have the ability to stimulate chondrogenesis and further amplify the effects of TGF-β during the chondrogenic process.

Sequence: ITTKSVSRYRGQEH [CXCL14-P]
- GAG content (Alcian blue) (clinical-grade ADSCs; in the absence of TGF-β): evident
- GAG content (Alcian blue) (clinical-grade ADSCs; in the presence of TGF-beta): significantly increased
- GAG content (Alcian blue) (clinical-grade ADSCs; peptides compared to CXCL14/CXCL12 proteins, listed as CXCL14 peptide): significantly higher; also recorded: greater ability
- chondrogenic gene expression (COMP, SOX9, COL2A1, ACAN, ITGB1) (UC-MSCs): significantly upregulated
- cellular uptake / detectability of peptide (ADSCs; 10 ng FAM-labeled, 24 hours then peptide-free medium, monitored to day 7): detectable on day 1 but became undetectable by day 7
- peptide internalization (cell penetration) (ADSCs; 10 ng FITC-conjugated peptide, 37° C. for one day, observed days 1, 3, 7): remain detectable up to day 7
